Measurements reported in patent publication EP1247803A2, “Indolinone compounds suitable for modulation of protein kinases” (Sugen, Inc., priority 1996, dated 1998).

Assays:
EGFR = biological target: T1, EGFR (Homo sapiens, UniProt P00533); assay: EGFR ELISA assay (in vitro kinase activity, EGFR captured from A431 cell lysate); assay type: biochemical; set-up: concentration or dose not given beside the values
T1 construct: Add 7 ug A431 cell lysate per well (EGFR source); endogenous in cells; host or cells: A431
In short: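 Receptor autophosphorylation was read by ELISA: anti-phosphotyrosine serum and an HRP-linked secondary with ABTS substrate, absorbance at 410 nm (reference 630 nm). The reaction ran 5 min with 3 µM ATP and 5 mM MnCl2 and was quenched by 20 mM EDTA. Compounds were first incubated 30 min with antibody-captured EGFR from A431 cell lysate.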

MET = MET biochemical kinase assay; set-up: species or system human; concentration or dose not given beside the values
In short: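 Lysate-derived MET, or chimeric receptors, is immobilised on plates through an antibody to the human MET cytoplasmic region. Compounds are added along with kinase buffer supplying ATP and divalent metal ions, and receptor autophosphorylation is quantified by anti-phosphotyrosine ELISA.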

T1 sequence (P00533 25-1210): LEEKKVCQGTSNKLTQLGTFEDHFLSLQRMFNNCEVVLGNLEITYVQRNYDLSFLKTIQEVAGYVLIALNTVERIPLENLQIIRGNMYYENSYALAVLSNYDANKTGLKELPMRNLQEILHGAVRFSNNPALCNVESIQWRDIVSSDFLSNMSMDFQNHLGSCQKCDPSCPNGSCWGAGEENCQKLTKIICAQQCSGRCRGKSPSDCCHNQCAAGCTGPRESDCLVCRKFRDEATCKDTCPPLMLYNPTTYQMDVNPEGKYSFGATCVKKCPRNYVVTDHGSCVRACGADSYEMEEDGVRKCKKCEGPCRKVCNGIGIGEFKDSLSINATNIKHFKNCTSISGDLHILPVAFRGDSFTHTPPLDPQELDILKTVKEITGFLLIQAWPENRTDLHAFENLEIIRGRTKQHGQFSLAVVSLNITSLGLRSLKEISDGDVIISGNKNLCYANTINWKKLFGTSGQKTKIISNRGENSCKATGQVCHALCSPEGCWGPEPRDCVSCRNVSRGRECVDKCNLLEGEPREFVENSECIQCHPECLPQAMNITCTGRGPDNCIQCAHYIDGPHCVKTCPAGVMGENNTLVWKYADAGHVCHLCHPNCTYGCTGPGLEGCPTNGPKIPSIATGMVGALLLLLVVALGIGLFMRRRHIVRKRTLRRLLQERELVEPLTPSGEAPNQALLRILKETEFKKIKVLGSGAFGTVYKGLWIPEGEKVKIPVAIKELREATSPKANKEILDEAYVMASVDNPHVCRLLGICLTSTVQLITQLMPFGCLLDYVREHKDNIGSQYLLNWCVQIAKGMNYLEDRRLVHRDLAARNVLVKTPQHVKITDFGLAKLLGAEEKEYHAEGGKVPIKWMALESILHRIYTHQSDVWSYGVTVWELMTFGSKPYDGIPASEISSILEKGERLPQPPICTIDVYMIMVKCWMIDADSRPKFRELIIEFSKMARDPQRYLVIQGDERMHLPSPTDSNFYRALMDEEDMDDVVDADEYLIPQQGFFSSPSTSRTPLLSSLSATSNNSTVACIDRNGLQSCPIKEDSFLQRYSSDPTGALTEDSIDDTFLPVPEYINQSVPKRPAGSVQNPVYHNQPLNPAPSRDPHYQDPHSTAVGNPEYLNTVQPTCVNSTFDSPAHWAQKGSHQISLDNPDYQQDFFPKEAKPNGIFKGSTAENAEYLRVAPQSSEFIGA

Compound | Biochem EGFR %Inhibition (EGFR) [%] | Met Kinase % Inhibition (MET) [%]
O=C1Nc2ccc(S(=O)(=O)Nc3ccc(C(F)(F)F)cc3)cc2C1=Cc1cc(Cl)ccc1O [10734/E04] | -7.8 | 88.9
O=C1Nc2c(Br)cc(Br)cc2C1=Cc1ccc(F)cc1C(F)(F)F [10719/A11] | 10.5 | 34.9
O=C1Nc2ccc(CCCl)cc2C1=Cc1ccc(Br)s1 [10734/G11] | 4.1 | 20.2
O=C1Nc2ccc(CCCl)cc2C1=Cc1ccc2ccccc2c1O [10718/G04] | 15.8 | 78.1
O=C1Nc2ccc(CCCl)cc2C1=Cc1cc(Br)cc(Br)c1O [10734/G07] | 51.1 | 96.6
O=C1Nc2c(Br)cc(Br)cc2C1=Cc1ccc(O)c(O)c1 [10719/A03] | 67.7 | 84.1
O=C1Nc2c(Br)cc(Br)cc2C1=Cc1ccc(O)cc1 [10719/A07] | 15.5 | 68.1
O=C1Nc2ccc(S(=O)(=O)Nc3ccc(C(F)(F)F)cc3)cc2C1=Cc1cccc(F)c1O [10734/E08] | 24.2 | 89.1
O=C1Nc2ccc(CCCl)cc2C1=Cc1cc(Cl)cc(Cl)c1O [10734/G03] | 82.8 | 93.4
O=C1Nc2ccc(S(=O)(=O)N3CCOCC3)cc2C1=Cc1ccc(Cl)c([N+](=O)[O-])c1 [10718/F08] | -8.7 | 28.4
CC(C)(C)c1ccc(C=C2C(=O)Nc3ccc(S(=O)(=O)N4CCOCC4)cc32)cc1 [10734/F10] | -8.3 | 44.8
O=C1Nc2ccc(CCCl)cc2C1=Cc1ccc(O)c(Br)c1 [10734/G09] | 21.4 | 84.7
O=C1Nc2ccc(CCCl)cc2C1=Cc1cccc(F)c1O [10734/G08] | 33.7 | 82.2
COc1cc(OC)c(C=C2C(=O)Nc3ccc(Br)c(C)c32)c(OC)c1 [10719/C06] | -14.3 | 18.4
Cc1c(Br)ccc2c1C(=Cc1ccc(N(C)C)cc1)C(=O)N2 [10719/C08] | -10.2 | 57.5
CCN(CC)c1ccc(C=C2C(=O)Nc3ccc(CCCl)cc32)c(O)c1 [10734/G05] | -0.3 | 57.7
COc1cc(Br)c(O)c(C=C2C(=O)Nc3ccc(S(=O)(=O)N4CCOCC4)cc32)c1 [10718/F03] | 22.5 | 87.9
Cc1c(O)ccc(C=C2C(=O)Nc3ccc(CCCl)cc32)c1O [10718/G09] | -15.4 | 27.0
O=C1Nc2ccc(I)cc2C1=Cc1cccc([N+](=O)[O-])c1 [10719/B10] | -1.2 | 53.4
COc1ccc(C=C2C(=O)Nc3ccc(I)cc32)c(OC)c1 [10719/B04] | 29.9 | 38.4

Compound | Biochem EGFR %Inhibition (EGFR) [%] | Met Kinase % Inhibition (MET) [%]
O=C1Nc2ccc(S(=O)(=O)N3CCOCC3)cc2C1=Cc1ccco1 [10718/F10] | -12.0 | 23.7
O=C1Nc2ccc(S(=O)(=O)N3CCOCC3)cc2C1=Cc1ccc([N+](=O)[O-])cc1 [10734/F06] | -17.1 | 64.2
CCN(CC)c1ccc(C=C2C(=O)Nc3ccc(S(=O)(=O)N4CCOCC4)cc32)c(O)c1 [10734/F05] | -15.6 | 73.8
O=C1Nc2ccc(S(=O)(=O)N3CCOCC3)cc2C1=Cc1ccc2ccccc2c1O [10718/F04] | 1.2 | 78.1
Cn1cccc1C=C1C(=O)Nc2ccc(I)cc21 [10717/B04] | 10.3 | 70.0
O=C1Nc2ccc(S(=O)(=O)Nc3ccc(C(F)(F)F)cc3)cc2C1=Cc1cc(Br)cc(Br)c1O [10734/E07] | 82.4 | 100.8
O=C1Nc2ccc(S(=O)(=O)Nc3ccc(C(F)(F)F)cc3)cc2C1=Cc1ccc(O)c(Br)c1 [10734/E09] | 73.0 | 96.2
Cc1c(Br)ccc2c1C(=Cc1ccc(O)cc1)C(=O)N2 [10719/C07] | 14.4 | 7.7
CCc1c(C)[nH]c(C=C2C(=O)Nc3c(Br)cc(Br)cc32)c1C [10719/A05] | 23.1 | 39.6
CCOc1ccc(C=C2C(=O)Nc3c(Br)cc(Br)cc32)cc1OC [10719/A02] | 43.0 | 40.9
O=C1Nc2ccc(I)cc2C1=Cc1c[nH]c2ccccc12 [10717/B06] | -30.8 | 89.5
O=C1Nc2ccc(CCCl)cc2C1=Cc1ccc([N+](=O)[O-])cc1 [10734/G06] | 12.5 | 43.1
CCN(CC)c1ccc(C=C2C(=O)Nc3ccc(S(=O)(=O)Nc4ccc(C(F)(F)F)cc4)cc32)c(O)c1 [10734/E05] | 7.9 | 63.6
O=C1Nc2ccc(CCCl)cc2C1=Cc1ccc([N+](=O)[O-])o1 [10718/G11] | -4.9 | 3.0
O=C1Nc2ccc(S(=O)(=O)N3CCOCC3)cc2C1=Cc1cc(Cl)ccc1O [10734/F04] | 3.9 | 76.5
CN(C)c1ccc(C=C2C(=O)Nc3c(Br)cc(Br)cc32)cc1 [10719/A08] | 47.3 | 75.5
O=C1Nc2ccc(S(=O)(=O)N3CCOCC3)cc2C1=Cc1cc(Br)cc(Br)c1O [10734/F07] | 33.7 | 95.7
CCOC(=O)c1cc(C=C2C(=O)Nc3ccc(S(=O)(=O)N4CCOCC4)cc32)oc1C [10718/F06] | -9.1 | 42.5
CCOc1cccc(C=C2C(=O)Nc3ccc(S(=O)(=O)N4CCOCC4)cc32)c1O [10734/F02] | 0.7 | 55.0
CCc1c(C)[nH]c(C=C2C(=O)Nc3ccc(Br)c(C)c32)c1C [10719/C05] | 27.4 | 35.5

Compound | Biochem EGFR %Inhibition (EGFR) [%] | Met Kinase % Inhibition (MET) [%]
CCOC(=O)c1cc(C=C2C(=O)Nc3ccc(CCCl)cc32)oc1C [10718/G06] | -18.7 | 61.0
CC(C)(C)c1ccc(C=C2C(=O)Nc3ccc(S(=O)(=O)Nc4ccc(C(F)(F)F)cc4)cc32)cc1 [10734/E10] | -5.0 | 27.9
O=C1Nc2ccc(S(=O)(=O)N3CCOCC3)cc2C1=Cc1ccc(O)c(Br)c1 [10734/F09] | 3.1 | 93.9
CCOc1cccc(C=C2C(=O)Nc3ccc(CCCl)cc32)c1O [10734/G02] | 3.4 | 63.6
CCOc1ccccc1C=C1C(=O)Nc2ccc(I)cc21 [10717/B02] | 31.7 | 87.5
COc1ccc(C=C2C(=O)Nc3c(Br)cc(Br)cc32)c(OC)c1 [10719/A04] | 43.7 | 22.9
O=C1Nc2ccc(S(=O)(=O)Nc3ccc(C(F)(F)F)cc3)cc2C1=Cc1ccc(Br)s1 [10734/E11] | -8.0 | 67.1
O=C1Nc2c(Br)cc(Br)cc2C1=Cc1cccc([N+](=O)[O-])c1 [10719/A10] | 8.2 | 13.4
O=C1Nc2ccc(I)cc2C1=Cc1ccc(F)cc1Cl [10719/B09] | -17.7 | 23.5
O=C1Nc2ccc(CCCl)cc2C1=Cc1ccc(Cl)c([N+](=O)[O-])c1 [10718/G08] | -8.3 | 17.5
CN(C)c1ccc(C=C2C(=O)Nc3ccc(I)cc32)cc1 [10719/B08] | 42.3 | 33.2
CC(C)(C)c1ccc(C=C2C(=O)Nc3ccc(CCCl)cc32)cc1 [10734/G10] | 3.8 | 19.3
O=C1Nc2ccc(S(=O)(=O)N3CCOCC3)cc2C1=Cc1cccc(F)c1O [10734/F08] | -23.6 | 66.3
CCOc1ccc(C=C2C(=O)Nc3ccc(I)cc32)cc1OC [10719/B02] | 29.0 | 47.0
COC(=O)c1[nH]c(C)c(C=C2C(=O)Nc3ccc(CCCl)cc32)c1C(=O)OC [10718/G07] | -21.3 | 52.0
COc1cc(OC)c(C=C2C(=O)Nc3ccc(I)cc32)c(OC)c1 [10719/B06] | -0.5 | 22.5
O=C1Nc2ccc(S(=O)(=O)N3CCOCC3)cc2C1=Cc1cc(Cl)cc(Cl)c1O [10734/F03] | 24.8 | 86.8
CCOC(=O)CCc1c(C(=O)OCC)[nH]c(C=C2C(=O)Nc3ccc(S(=O)(=O)N4CCOCC4)cc32)c1CC(=O)OCC [10718/F05] | -4.9 | 53.7
COc1cc(OC)c(C=C2C(=O)Nc3c(Br)cc(Br)cc32)c(OC)c1 [10719/A06] | 18.2 | -7.0
O=C1Nc2ccc(I)cc2C1=Cc1ccc(F)cc1 [10717/B05] | 31.7 | 87.4
